# Assays:
# [1] = pKa measurements of individual IAJD molecules by titration; assay type: physicochemical; details: individual IAJD molecule; for Avg pKa: average of pKa 1-3; for pKa 1: measurement 1; for pKa 2: measurement 2; for pKa: ethanol saturated with NaCl, titrated with 0.1 M aqueous HCl, Table 15
# Procedure: pKa measurements of individual IAJD Molecules was performed as follows. IAJD Molecules were first dissolved in ethanol (Sat. with NaCl) at a concentration of 1.5 mg/mL and the solution volume was 3 mL.
# Then 0.1 M HCl solution was added to the above ethanol solution with an increment of 7.5 μL. The resulting pH after each addition of HCl solution was measured by an Thermo Scientific Orion Star A121 meter with Thermo Scientific Orion 8220BNWP pH probe. pKa was determined using the half equivalence point titration.
# [2] = DLS size of dendrimersomes assembled from glycerol-JDs in water at different concentrations; assay type: physicochemical; details: for Dh (nm): size distribution by intensity
# Procedure: Assembly of all eight glycerol-JDs was performed by injection of their ethanol solution (50 μL) into 1 mL of Milli-Q water. The size distribution and structure of resulting DSs were analyzed by DLS (FIG. 84) and cryo-TEM. […] In a certain concentration range the size of DSs increased with the concentration of JDs injected in water or buffer. […] The dimensions of the assemblies were identical when the concentrations of the JDs in water were identical. Sizes of assemblies from mixtures of 1R and 1S in different ratios (1:3, 1:1 and 3:1), were also identical (FIG. 84). […] With the exception of the rotation of polarized light, the physical properties of enantiomers and their racemic mixtures must be identical.
# Dynamic light scattering (DLS). Hydrodynamic diameters (Dh) of the self-assemblies of dendrimer molecules and their size distributions were measured on a Malvern Instruments particle sizer (Zetasizer® Nano S, Malvern Instruments, UK) equipped with 4 mW He—Ne laser (633 nm) and avalanche photodiode positioned at […] to the beam and temperature controlled cuvette holder. Experiments were performed at 25° C. in triplicate. The distribution of radius was intensity.
smiles,measurement,setting,value
CCCCCCCCCCCCOc1cc(CNC(=O)c2cc(OCCOCCOCCOC(=O)CCCN(C)C)c(OCCOCCOCCOCc3ccccc3)c(OCCOCCOCCOC(=O)CCCN(C)C)c2)cc(OCCCCCCCCCCCC)c1 [IAJD 9],Avg pKa,[1],6.56
same,pKa 1,[1]; titration,6.52
same,pKa 2,[1]; titration,6.52
same,pKa 3,"[1]; titration, measurement 3",6.64
"CCCCCCCCCCCCOc1cc(OCCCCCCCCCCCC)cc(C(=O)OCC(COC(=O)c2cc(OCCCCCCCCCCCC)cc(OCCCCCCCCCCCC)c2)OC(=O)C(C)(COC(=O)c2cc(OCCOCCOCCOC)c(OCCOCCOCCOC)c(OCCOCCOCCOC)c2)COC(=O)c2cc(OCCOCCOCCOC)c(OCCOCCOCCOC)c(OCCOCCOCCOC)c2)c1 [Compound 3, (3,5)-12G1-GC-(achiral)-BMPA-(3,4,5)-3EO-G2]",PDI,[2]; JD 0.025 mg·mL−1 in water,0.272
same,Dh (nm),[2]; JD 0.025 mg·mL−1 in water,72 nm
same,PDI,[2]; JD 0.05 mg·mL−1 in water,0.241
same,Dh (nm),[2]; JD 0.05 mg·mL−1 in water,97 nm
same,PDI,[2]; JD 0.1 mg·mL−1 in water,0.183
same,Dh (nm),[2]; JD 0.1 mg·mL−1 in water,123 nm
same,PDI,[2]; JD 0.25 mg·mL−1 in water,0.153
same,Dh (nm),[2]; JD 0.25 mg·mL−1 in water,144 nm
same,PDI,[2]; JD 0.5 mg·mL−1 in water,0.152
same,Dh (nm),[2]; JD 0.5 mg·mL−1 in water,162 nm
same,PDI,[2]; JD 0.75 mg·mL−1 in water,0.236
same,Dh (nm),[2]; JD 0.75 mg·mL−1 in water,224 nm
same,PDI,[2]; JD 1.0 mg·mL−1 in water,0.233
same,Dh (nm),[2]; JD 1.0 mg·mL−1 in water,266 nm
CCCCCCCCCCCCOc1cc(CNC(=O)c2cc(OCCOCCOCCOC(=O)CCCN(C)C)c(OCCOCCOCCOC)c(OCCOCCOCCOC(=O)CCCN(C)C)c2)cc(OCCCCCCCCCCCC)c1 [IAJD 4],Avg pKa,[1],6.43
same,pKa 1,[1]; titration,6.43
"CCCCCCCCCCCCOc1cc(COC(=O)CCCN2CCN(C)CC2)cc(OCCCCCCCCCCCC)c1 [IAJD 66, 3,5-Bis(dodecyloxy)benzyl 4-(4-methylpiperazin-1-yl)butanoate]",pKa,[1]; titration,6.37
"CCCCCCCCCCCCOc1cc(COC(=O)CCCN(C)C)cc(OCCCCCCCCCCCC)c1 [IAJD 64, 3,5-Bis(dodecyloxy)benzyl 4-(dimethylamino)butanoate]",pKa,[1]; titration,7.06
"CCCCCCCCCCCCOc1cc(OCCCCCCCCCCCC)cc(C(=O)OCC(C)(COC(=O)c2cc(OCCCCCCCCCCCC)cc(OCCCCCCCCCCCC)c2)C(=O)OC(COC(=O)c2cc(OCCOCCOCCOC)c(OCCOCCOCCOC)c(OCCOCCOCCOC)c2)COC(=O)c2cc(OCCOCCOCCOC)c(OCCOCCOCCOC)c(OCCOCCOCCOC)c2)c1 [Compound 4, (3,5)-12G2-BMPA-GC-(achiral)-(3,4,5)-3EO-G1]",PDI,[2]; JD 0.025 mg·mL−1 in water,0.391
same,Dh (nm),[2]; JD 0.025 mg·mL−1 in water,100 nm
same,PDI,[2]; JD 0.05 mg·mL−1 in water,0.266
same,Dh (nm),[2]; JD 0.05 mg·mL−1 in water,102 nm
same,PDI,[2]; JD 0.1 mg·mL−1 in water,0.136
same,Dh (nm),[2]; JD 0.1 mg·mL−1 in water,119 nm
same,PDI,[2]; JD 0.25 mg·mL−1 in water,0.180
same,Dh (nm),[2]; JD 0.25 mg·mL−1 in water,132 nm
same,PDI,[2]; JD 0.5 mg·mL−1 in water,0.183
same,Dh (nm),[2]; JD 0.5 mg·mL−1 in water,166 nm
same,PDI,[2]; JD 0.75 mg·mL−1 in water,0.233
same,Dh (nm),[2]; JD 0.75 mg·mL−1 in water,210 nm
same,PDI,[2]; JD 1.0 mg·mL−1 in water,0.291
same,Dh (nm),[2]; JD 1.0 mg·mL−1 in water,284 nm
CCCCCCCCCCCCOc1cc(OCCCCCCCCCCCC)cc(C(=O)OCC(COC(=O)c2cc(OCCCCCCCCCCCC)cc(OCCCCCCCCCCCC)c2)(COC(=O)c2cc(OCCOCCOCCOC(=O)CCCN(C)C)c(OCCOCCOCCOC(=O)CCCN(C)C)c(OCCOCCOCCOC(=O)CCCN(C)C)c2)NC(=O)c2cc(OCCOCCOCCOC)c(OCCOCCOCCOC)c(OCCOCCOCCOC)c2)c1 [IAJD 42],Avg pKa,[1],6.06
same,pKa 1,[1]; titration,6.06
CCCCCCCCCCCCOc1cc(CNC(=O)c2cc(OCCOCCOCCOC)c(OCCOCCOCCOC(=O)CCCN(C)C)c(OCCOCCOCCOC)c2)cc(OCCCCCCCCCCCC)c1 [IAJD 2],Avg pKa,[1],6.20
same,pKa 1,[1]; titration,6.20
CCCCCCCCCCCCOc1cc(OCCCCCCCCCCCC)cc(C(=O)OCC(COC(=O)c2cc(OCCCCCCCCCCCC)cc(OCCCCCCCCCCCC)c2)(COC(=O)c2cc(OCCOCCOCCOC(=O)CCCN(C)C)c(OCCOCCOCCOC)c(OCCOCCOCCOC(=O)CCCN(C)C)c2)NC(=O)c2cc(OCCOCCOCCOC)c(OCCOCCOCCOC)c(OCCOCCOCCOC)c2)c1 [IAJD 41],Avg pKa,[1],6.36
same,pKa 1,[1]; titration,6.38
same,pKa 2,[1]; titration,6.34
"CCCCCCCCCCCCOc1cc(CNC(=O)CCCN2CCN(C)CC2)cc(OCCCCCCCCCCCC)c1 [IAJD 70, N-(3,5-bis(dodecyloxy)benzyl)-4-(4-methylpiperazin-1-yl)butanamide]",pKa,[1]; titration,6.44
CCCCCCCCCCCCOc1cc(OCCCCCCCCCCCC)cc(C(=O)OCC(COC(=O)c2cc(OCCCCCCCCCCCC)cc(OCCCCCCCCCCCC)c2)(COC(=O)c2cc(OCCOCCOCCOC)c(OCCOCCOCCOC)c(OCCOCCOCCOC(=O)CCCN(C)C)c2)NC(=O)c2cc(OCCOCCOCCOC)c(OCCOCCOCCOC)c(OCCOCCOCCOC)c2)c1 [IAJD 38],Avg pKa,[1],6.38
same,pKa 1,[1]; titration,6.43
same,pKa 2,[1]; titration,6.32
